# Reference: patent US8420049B2 (priority 2002, dated 2013)
# Legend:
# [1] = In vitro metabolism of [^11C] AMP in human whole blood or plasma; format: in vitro ADME
# Description: Human plasma was prepared from heparinized blood of a healthy volunteer. 50 μL of [^11C] AMP (39.96-70.82 GBq/μmol, 1080-1914 mCi/μmol) was added to 1 mL of plasma or heparinized whole blood at 37° C. In one series of studies, dipyridamole was added to give a concentration of 500 μM in whole blood. One hundred μL samples, which were removed from the incubation mixture at 0, 2, 5, 10, 20, and 30 minutes, were added to 350 μL of water at 0° C. and acidified with 50 μL of 5N perchloric acid. After standing for 5 minutes on ice, the protein precipitate was removed by centrifugation at 13,000×g for 1 minute in a microcentrifuge. The acid soluble supernatant was analyzed by HPLC. Chromatographic separation of the labeled adenosine phosphate esters used a Phenomenex Synergi Polar RP column (4.6×250 mm, 10 micron particle size) eluted with 0.1N perchloric acid at 2 mL/min. Radioactivity was detected by a dual BGO flow detector (Bioscan Inc., Washington D.C.). Optical detection was at 254 nm. Data from both detectors was collected and analyzed by Laura software (Bioscan Inc., Washington D.C.).
# [2] = Ex vivo distribution of [^11C] AMP in mice; design: species or system mouse; settings: CD-1 mice, mean ± SD (n = 3)
# Description: Non-fasted, male CD-1 mice (25 g) were injected via the tail vein with 15.5 MBq (418 μCi, 2.57 μg/kg) of [^11C] AMP. Three mice each were sacrificed by cervical dislocation at 5, 30, and 60 minutes after injection. The lungs, heart, kidneys, liver, spleen, intestine, stomach, and brain were quickly removed and put on ice. One femur and samples of thigh muscle and blood were also collected. The organs were weighed, and the tissue radioactivity measured with an automated gamma counter (LKB Wallac 1282 Compugamma CS Universal Gamma Counter). The percent injected dose per gram of tissue (% ID/g) was calculated by comparison with samples of a standard dilution of the initial dose. All measurements were corrected for decay.
# [3] = Effect of dipyridamole treatment on uptake and distribution of [^11C] AMP in mice; format: in vivo, mouse; settings: 30 mg/kg dipyridamole ip 60 minutes before [^11C] AMP
# Description: The effect of dipyridamole treatment on the uptake and distribution of [^11C] AMP, nine mice were given a 30 mg/kg dose of dipyridamole ip 60 minutes prior to administration of the radiotracer was determined. Three mice each were sacrificed 5, 30, and 60 minutes after injection of 23.8 MBq (642 μCi, 8.7 μg/kg) of [^11C] AMP. All tissue samples were handled as described above.
smiles,measurement,setting,value
"Nc1n[11cH]nc2c1ncn2[C@@H]1O[C@H](COP(=O)(O)O)[C@@H](O)[C@H]1O [[^11C] AMP, [^11C] Adenosine 5′-Monophosphate]",conversion of the tracer to adenosine,"[1]; dipyridamole (500 μM) treated whole human blood, after 5 minutes",> 60%
same,conversion to ATP,"[1]; whole human blood, 37° C., after 10 minutes",> 60%
same,Ex vivo mouse biodistribution,"[2]; Blood, 5 minutes after iv injection",27.94 ± 8.21 % ID/g
same,Ex vivo mouse biodistribution,"[2]; Blood, 30 minutes after iv injection",27.34 ± 0.41 % ID/g
same,Ex vivo mouse biodistribution,"[2]; Blood, 60 minutes after iv injection",24.34 ± 4.13 % ID/g
same,Ex vivo mouse biodistribution,"[2]; Bone, 5 minutes after iv injection",2.35 ± 0.68 % ID/g
same,Ex vivo mouse biodistribution,"[2]; Bone, 30 minutes after iv injection",2.57 ± 0.34 % ID/g
same,Ex vivo mouse biodistribution,"[2]; Bone, 60 minutes after iv injection",3.21 ± 0.48 % ID/g
same,Ex vivo mouse biodistribution,"[2]; Brain, 5 minutes after iv injection",0.78 ± 0.18 % ID/g
same,Ex vivo mouse biodistribution,"[2]; Brain, 30 minutes after iv injection",1.06 ± 0.19 % ID/g
same,Ex vivo mouse biodistribution,"[2]; Brain, 60 minutes after iv injection",0.80 ± 0.26 % ID/g
same,Ex vivo mouse biodistribution,"[2]; Heart, 5 minutes after iv injection",20.09 ± 3.24 % ID/g
same,Ex vivo mouse biodistribution,"[2]; Heart, 30 minutes after iv injection",18.07 ± 5.19 % ID/g
same,Ex vivo mouse biodistribution,"[2]; Heart, 60 minutes after iv injection",20.47 ± 2.87 % ID/g
same,Ex vivo mouse biodistribution,"[2]; Intestine, 5 minutes after iv injection",1.74 ± 0.41 % ID/g
same,Ex vivo mouse biodistribution,"[2]; Intestine, 30 minutes after iv injection",1.80 ± 0.50 % ID/g
same,Ex vivo mouse biodistribution,"[2]; Intestine, 60 minutes after iv injection",2.17 ± 1.06 % ID/g
same,Ex vivo mouse biodistribution,"[2]; Kidneys, 5 minutes after iv injection",8.88 ± 3.82 % ID/g
same,Ex vivo mouse biodistribution,"[2]; Kidneys, 30 minutes after iv injection",9.31 ± 2.88 % ID/g
same,Ex vivo mouse biodistribution,"[2]; Kidneys, 60 minutes after iv injection",6.80 ± 4.10 % ID/g
same,Ex vivo mouse biodistribution,"[2]; Liver, 5 minutes after iv injection",7.56 ± 3.98 % ID/g
same,Ex vivo mouse biodistribution,"[2]; Liver, 30 minutes after iv injection",2.99 ± 0.10 % ID/g
same,Ex vivo mouse biodistribution,"[2]; Liver, 60 minutes after iv injection",3.53 ± 0.55 % ID/g
same,Ex vivo mouse biodistribution,"[2]; Lungs, 5 minutes after iv injection",32.37 ± 4.52 % ID/g
same,Ex vivo mouse biodistribution,"[2]; Lungs, 30 minutes after iv injection",29.52 ± 5.42 % ID/g
same,Ex vivo mouse biodistribution,"[2]; Lungs, 60 minutes after iv injection",38.48 ± 3.63 % ID/g
same,Ex vivo mouse biodistribution,"[2]; Muscle, 5 minutes after iv injection",2.14 ± 0.61 % ID/g
same,Ex vivo mouse biodistribution,"[2]; Muscle, 30 minutes after iv injection",3.67 ± 0.54 % ID/g
same,Ex vivo mouse biodistribution,"[2]; Muscle, 60 minutes after iv injection",3.63 ± 1.04 % ID/g
same,Ex vivo mouse biodistribution,"[2]; Spleen, 5 minutes after iv injection",2.96 ± 1.49 % ID/g
same,Ex vivo mouse biodistribution,"[2]; Spleen, 30 minutes after iv injection",4.75 ± 0.67 % ID/g
same,Ex vivo mouse biodistribution,"[2]; Spleen, 60 minutes after iv injection",4.71 ± 1.06 % ID/g
same,Ex vivo mouse biodistribution,"[2]; Stomach, 5 minutes after iv injection",1.98 ± 0.36 % ID/g
same,Ex vivo mouse biodistribution,"[2]; Stomach, 30 minutes after iv injection",1.12 ± 0.25 % ID/g
same,Ex vivo mouse biodistribution,"[2]; Stomach, 60 minutes after iv injection",2.10 ± 0.98 % ID/g
OCCN(CCO)c1nc(N2CCCCC2)c2nc(N(CCO)CCO)nc(N3CCCCC3)c2n1 [dipyridamole],effect on amount of tracer in the blood,[3],did not affect
same,effect on uptake of [^11C] radiotracer in the lungs,[3]; 60 minutes after injection,significantly decreased
